This test concerns the target Phospholipase D1 (Homo sapiens) (UniProt Q13393). The test can be described thus: cellular phospholipase D1 inhibition IC50 – cell-based, dose response (AID 602151). Particulars: cellular PLD1 activity assay.

Chain of Phospholipase D1 (Homo sapiens) (Q13393 whole entry, looked up): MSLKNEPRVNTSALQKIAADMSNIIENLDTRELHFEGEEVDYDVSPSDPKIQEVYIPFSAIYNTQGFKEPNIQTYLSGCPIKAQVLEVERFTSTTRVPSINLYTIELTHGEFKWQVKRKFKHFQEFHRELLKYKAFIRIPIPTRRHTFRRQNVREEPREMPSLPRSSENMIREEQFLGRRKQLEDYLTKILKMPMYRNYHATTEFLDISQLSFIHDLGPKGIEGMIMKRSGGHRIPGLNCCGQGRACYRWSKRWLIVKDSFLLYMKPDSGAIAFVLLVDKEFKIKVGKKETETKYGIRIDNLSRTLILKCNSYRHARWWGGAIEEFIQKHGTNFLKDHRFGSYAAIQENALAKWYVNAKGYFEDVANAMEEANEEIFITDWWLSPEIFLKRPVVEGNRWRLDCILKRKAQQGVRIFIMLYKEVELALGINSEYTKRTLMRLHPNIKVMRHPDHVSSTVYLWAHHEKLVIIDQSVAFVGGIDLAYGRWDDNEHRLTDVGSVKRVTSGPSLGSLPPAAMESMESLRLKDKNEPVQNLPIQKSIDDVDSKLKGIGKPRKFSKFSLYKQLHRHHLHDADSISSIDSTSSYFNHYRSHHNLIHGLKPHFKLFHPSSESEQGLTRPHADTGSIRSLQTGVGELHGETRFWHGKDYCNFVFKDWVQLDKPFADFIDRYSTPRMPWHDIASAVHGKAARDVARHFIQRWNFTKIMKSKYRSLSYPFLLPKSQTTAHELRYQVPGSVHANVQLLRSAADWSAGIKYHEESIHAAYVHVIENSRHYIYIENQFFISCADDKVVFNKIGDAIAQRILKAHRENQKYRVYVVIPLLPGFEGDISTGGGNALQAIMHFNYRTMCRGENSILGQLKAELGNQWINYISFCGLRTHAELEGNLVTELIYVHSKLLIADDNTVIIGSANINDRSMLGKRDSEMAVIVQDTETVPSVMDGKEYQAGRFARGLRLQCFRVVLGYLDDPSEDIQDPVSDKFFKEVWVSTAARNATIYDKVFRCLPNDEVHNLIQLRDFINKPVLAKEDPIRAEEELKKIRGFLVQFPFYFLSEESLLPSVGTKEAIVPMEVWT
Chain of Phospholipase D1 (Homo sapiens) (Q13393 whole entry, looked up): as above

For the compound `O=C(NCCN1CCC2(CC1)C(=O)NCN2c1ccc(Cl)cc1)c1ccc(F)cc1`, the IC50 was 5.59 µM.

Regarding `O=C(NCCN1CCC2(CC1)C(=O)NCN2c1ccccc1)c1cc2ccccc2s1`, the IC50 is 0.15 µM.

In the case of `O=C(NCCN1CCC2(CC1)C(=O)NCN2c1ccc(F)cc1)c1ccc2ccccc2c1`, the half-maximal inhibitory concentration (IC50) was 1.7 µM.

As to `O=C(NCCN1CCC2(CC1)C(=O)NCN2c1cccc(F)c1)c1cc2cc(F)ccc2[nH]1`, the IC50 was 0.21 µM.

For `O=C(NCCN1CCC2(CC1)C(=O)NCN2c1ccccc1)c1cnc2ccccc2c1`, the IC50 is 1.9 µM.

Take `O=C(NCCN1CCC2(CC1)C(=O)NCN2c1ccc(Cl)cc1)c1cnc2ccccc2c1`: the IC50 was 3.5 µM.

As for `C[C@@H](CN1CCC2(CC1)C(=O)NCN2c1cccc(F)c1)NC(=O)c1ccc2ccccc2c1`, the IC50 was 0.01 µM.

With `O=C(NCCN1CCC2(CC1)C(=O)NCN2c1ccc(F)cc1)c1cnc2ccccc2c1`, the IC50 was 2 µM.

As for `O=C(NCCN1CCC2(CC1)C(=O)NCN2c1ccc(F)c(F)c1)c1cc2cc(F)ccc2[nH]1`, the IC50 was 0.39 µM.

Take `O=C(NCCN1CCC2(CC1)C(=O)NCN2c1ccc(F)cc1)c1ccc(F)cc1`: the IC50 is 14 µM.

`C[C@@H](CN1CCC2(CC1)C(=O)NCN2c1ccccc1)NC(=O)c1ccc(F)c(F)c1`: the IC50 is 0.15 µM.

Regarding `O=C(NCCN1CCC2(CC1)C(=O)NCN2c1ccc(F)c(F)c1)c1ccc2ccccc2c1`, the IC50 is 2.81 µM.

Regarding `O=C(NCCN1CCC2(CC1)C(=O)NCN2c1ccc(Cl)cc1)c1cc2cc(F)ccc2[nH]1`, the IC50 is 0.335 µM.

Regarding `O=C(NCCN1CCC2(CC1)C(=O)NCN2c1ccc(Br)cc1)c1ccc(F)cc1`, the IC50 was 10 µM.

Take `O=C(NCCN1CCC2(CC1)C(=O)NCN2c1cccc(F)c1)c1cnc2ccccc2c1`: the IC50 was 2.5 µM.

In the case of `O=C(NCCN1CCC2(CC1)C(=O)NCN2c1ccc(F)c(F)c1)c1cnc2ccccc2c1`, the IC50 was 2.06 µM.

As for `O=C(NCCN1CCC2(CC1)C(=O)NCN2c1cccc(Cl)c1)c1ccc(F)cc1`, the IC50 is 3.47 µM.

Regarding `O=C(NCCN1CCC2(CC1)C(=O)NCN2c1cccc(Cl)c1)c1cnc2ccccc2c1`, the IC50 is 0.87 µM.

As to `COc1cc(C(=O)NCCN2CCC3(CC2)C(=O)NCN3c2ccccc2)ccc1N`, the IC50 is 5.9 µM.

Take `O=C(NCCN1CCC2(CC1)C(=O)NCN2c1ccc(Br)cc1)c1ccc2ccccc2c1`: the IC50 was 5.9 µM.

Regarding `Cc1cccc(C(=O)N[C@@H](C)CN2CCC3(CC2)C(=O)NCN3c2ccccc2)c1`, the IC50 was 3.4 µM.

For the compound `O=C(NCCN1CCC2(CC1)C(=O)NCN2c1cccc(Cl)c1)c1cc2cc(F)ccc2[nH]1`, the IC50 was 0.25 µM.

Consider `O=C(NCCN1CCC2(CC1)C(=O)NCN2c1ccc(F)cc1)c1cc2cc(F)ccc2[nH]1`, for which the IC50 is 0.29 µM.

For the compound `O=C(C#Cc1ccccc1)NCCN1CCC2(CC1)C(=O)NCN2c1ccccc1`, the IC50 was 2.13 µM.

In the case of `O=C(NCCN1CCC2(CC1)C(=O)NCN2c1cccc(Cl)c1)c1ccc2ccccc2c1`, the IC50 was 1.2 µM.

For the compound `O=C(NCCN1CCC2(CC1)C(=O)NCN2c1ccc(F)c(F)c1)c1ccc(F)cc1`, the IC50 is 5.78 µM.

Regarding `O=C(NCCN1CCC2(CC1)C(=O)NCN2c1ccc(Cl)cc1)c1ccc2ccccc2c1`, the IC50 is 2.27 µM.

For the compound `O=C(NCCN1CCC2(CC1)C(=O)NCN2c1ccc(Br)cc1)c1cnc2ccccc2c1`, the half-inhibitory concentration (IC50) is 2.7 µM.

Take `O=C(NCCN1CCC2(CC1)C(=O)NCN2c1ccc(Br)cc1)c1cc2cc(F)ccc2[nH]1`: the IC50 is 2.66 µM.

Usually IC50 stands for the concentration at which inhibition is half-maximal.

The values above are taken from PubChem BioAssay AID602151 (Vanderbilt Specialized Chemistry Center, 2011).
